The record followed here is US11478460B2, “Diaryl substituted 6,5-fused ring compounds as C5aR inhibitors” (CHEMOCENTRYX, INC., priority 2017, dated 2022).

Structures are written as SMILES.

For this assay, the target named is C5aR (Homo sapiens (Human), UniProt P21730). Briefly: Chemotaxis assay using U937 cells (C5aR mediated migration). The assay is classed as cell-based. The conditions noted are these: read-out: Mig IC50. The method, boiled down: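 Migration toward 0.03 nM C5a, mixed with varying compound in the lower chamber (HBSS with 1% FBS), was measured over 1.5 h at 37° C through 5 μm filters. Upper chamber held 100,000 U937 cells treated overnight with 0.5 mM cAMP; migrated cells quantified by counts or CyQuant for IC50, SDF-1α as specificity control.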
C5aR, sequence (P21730 whole entry): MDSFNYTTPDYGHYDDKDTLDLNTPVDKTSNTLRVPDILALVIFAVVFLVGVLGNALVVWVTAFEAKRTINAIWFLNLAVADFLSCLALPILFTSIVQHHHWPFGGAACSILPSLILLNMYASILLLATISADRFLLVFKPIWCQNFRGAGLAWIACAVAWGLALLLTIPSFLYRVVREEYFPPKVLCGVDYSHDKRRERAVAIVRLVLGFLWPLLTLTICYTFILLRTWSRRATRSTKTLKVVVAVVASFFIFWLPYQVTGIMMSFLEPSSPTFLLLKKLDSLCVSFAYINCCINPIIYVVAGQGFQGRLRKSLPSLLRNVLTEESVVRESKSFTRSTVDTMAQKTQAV
As to `Cc1cccc(OCC(C)C)c1-n1nc2c(c1-c1ccc(NC(N)=O)cc1)CN(c1nc(C(F)(F)F)ccc1F)CC2` [Example 1.386], the half-maximal inhibitory concentration (IC50) – broadly, the midpoint of a concentration-inhibition curve – fell in the range of 5 to 50 nM.

As for `Cc1cccc(OCC(C)C)c1-n1nc2c(c1-c1ccc(NC(N)=O)cc1)CN(Cc1c(C(F)(F)F)ccc(Cl)c1Cl)CC2` [Example 1.333], the IC50 is no more than 5 nM.

For the molecule `CCc1cccc(CC)c1-n1nc2c(c1-c1cc(F)c(NC(N)=O)cc1C)CN(C(C)c1ccccc1C(F)(F)F)CC2` (centres unmarked) [Example 1.197], the IC50 was no more than 5 nM.

For `CCc1cccc(CC)c1-n1nc2c(c1-c1cc(F)c(NC(N)=O)cc1F)CN(CC(C)(C)C(F)(F)F)CC2` [Example 1.001], the 50% inhibitory concentration (IC50) is no more than 5 nM.

On to `Cc1cc(NC(N)=O)ccc1-c1c2c(nn1-c1c(C)cccc1C)CCN(c1ccccc1C(C)C)C2` [Example 1.463], for which the IC50 is no more than 5 nM.

As to `CCC(C)N1CCc2nn(-c3c(C)cccc3OCC(C)C)c(-c3ccc(NC(N)=O)c(F)c3)c2C1` (centres unmarked) [Example 1.259], the IC50 fell in the range of 5 to 50 nM.

On to `CC[C@@H](c1ccccc1)N1CCc2nn(-c3c(C)cccc3C)c(-c3ccc(NC(N)=O)c(F)c3)c2C1` [Example 1.083], for which the 50% inhibitory concentration (IC50) lay in the range of 5 to 50 nM.

On to `Cc1cccc(C)c1-n1nc2c(c1-c1ccc(C(N)=O)cc1)CN(C(=O)OC(C)(C)C)CC2` [Example 1.420], for which the IC50 is greater than 500 nM.

For the molecule `Cc1cccc(OCC(C)C)c1-n1nc2c(c1-c1ccc(N)cc1)CN(c1ccccc1C(C)C)CC2` [Example 1.480], the IC50 was in the range of 5 to 50 nM.

Regarding `COc1cccc(F)c1-n1nc2c(c1-c1ccc(NC(N)=O)cc1)CN(c1cc(C(C)(C)C)ccc1C)CC2` [Example 1.451], the IC50 is 50 to 500 nM.

In the case of `CCCC(O)C(C)(C)N1CCc2nn(-c3c(CC)cccc3CC)c(-c3cc(F)c(NC(N)=O)cc3F)c2C1` (centres unmarked) [Example 1.090], the IC50 was no more than 5 nM.

Turning to `CCc1cccc(CC)c1-n1nc2c(c1-c1cc(F)c(NC(N)=O)cc1F)CN(CCCC(F)(F)F)C(C)(C)C2` [Example 1.008], the IC50 is no more than 5 nM.

For the molecule `Cc1cccc(OCC(C)C)c1-n1nc2c(c1-c1ccc(NC(N)=O)cc1)CN(C(=O)CCc1ccccc1)CC2` [Example 1.429], the IC50 fell in the range of 50 to 500 nM.

Turning to `Cc1cccc(OCC(C)C)c1-n1nc2c(c1-c1ccc(NC(N)=O)cc1)CN(C(=O)C1CCCC1)CC2` [Example 1.438], the IC50 lay in the range of 50 to 500 nM.

For `Cc1cnc(N2CCc3nn(-c4c(C)cccc4C)c(-c4cc(F)c(NC(N)=O)cc4F)c3C2)c(Cl)c1` [Example 1.115], the IC50 is no more than 5 nM.

Regarding `CCc1cccc(CC)c1-n1nc2c(c1-c1ccc(NC(N)=O)cc1)CN(Cc1cc(Cl)ccc1Cl)CC2` [Example 1.291], the half-maximal inhibitory concentration (IC50) was 5 to 50 nM.

As for `CCc1cccc(CC)c1-n1nc2c(c1-c1cc(F)c(NC(N)=O)cc1F)CN(C(=O)OC(C)(C)C)[C@H](C)C2` [Example 1.025], the IC50 was no more than 5 nM.

With `Cc1cccc(C)c1-n1nc2c(c1-c1cc(F)c(N)cc1F)CN(c1ncc(Cl)cc1Cl)CC2` [Example 1.120], the IC50 was greater than 500 nM.

As for `CCc1cccc(CC)c1-n1nc2c(c1-c1cc(F)c(NC=O)cc1F)CN(Cc1ccc(C(F)(F)F)cc1C(F)(F)F)CC2` [Example 1.003], the IC50 was no more than 5 nM.

Take `Cc1cccc(OCC(C)C)c1-n1nc2c(c1-c1ccc(NC(N)=O)c(F)c1)CN(c1ncc(C(F)(F)F)cc1F)CC2` [Example 1.288]: the IC50 was no more than 5 nM.

With `Cc1cc(NC(N)=O)c(F)cc1-c1c2c(nn1-c1c(C)cccc1C)CCN(c1ccc(C(F)(F)F)cc1F)C2` [Example 1.117], the IC50 was no more than 5 nM.

For the molecule `Cc1cccc(OCC(C)C)c1-n1nc2c(c1-c1ccc(NC(N)=O)cc1)CN(c1ccc(C(F)(F)F)c(Cl)c1)CC2` [Example 1.413], the concentration for half-maximal inhibition (IC50) lay within 5 to 50 nM.

As to `CCc1cccc(CC)c1-n1nc2c(c1-c1cc(F)c(NC(N)=O)cc1F)CN(C(C)c1cccc(F)c1)CC2` (centres unmarked) [Example 1.181], the IC50 was no more than 5 nM.

As to `Cc1cccc(C)c1-n1nc2c(c1-c1cc(F)c(NC(N)=O)cc1F)CN(c1ccc(C(C)(C)C)cc1Cl)CC2` [Example 1.098], the 50% inhibitory concentration (IC50) is no more than 5 nM.

`COc1cccc(C)c1-n1nc2c(c1-c1ccc(NC(N)=O)cc1)CN(c1ccccc1C(C)(C)C)CC2` [Example 1.456]: the IC50 is 5 to 50 nM.

Take `NC(=O)Nc1cc(F)c(-c2c3c(nn2-c2c(Cl)cccc2Cl)CCN(c2ncc(Cl)cc2Cl)C3)cc1F` [Example 1.187]: the IC50 is 5 to 50 nM.

Turning to `Cc1cccc(C)c1-n1nc2c(c1-c1ccc(C(N)=O)cc1)CN(c1ccccc1C(C)C)CC2` [Example 1.470], the IC50 was 5 to 50 nM.

Consider `Cc1cnc(N2CCc3nn(-c4c(C)cccc4OCC(C)C)c(-c4ccc(NC(N)=O)c(F)c4)c3C2)c(C(F)(F)F)c1` [Example 1.240], for which the IC50 was no more than 5 nM.

On to `CCc1cccc(CC)c1-n1nc2c(c1-c1cc(F)c(NC(N)=O)cc1F)CN(Cc1ccc(Cl)cc1C(F)(F)F)C(C)(C)C2` [Example 1.052], for which the IC50 was no more than 5 nM.

Take `Cc1cccc(OCC(C)C)c1-n1nc2c(c1-c1ccc(NC(N)=O)c(F)c1)CN(CC1CCCCC1)CC2` [Example 1.256]: the IC50 is no more than 5 nM.

Take `Cc1cccc(F)c1-n1nc2c(c1-c1cc(F)c(NC(N)=O)cc1F)CN(c1ncc(Cl)cc1Cl)CC2` [Example 1.176]: the IC50 is no more than 5 nM.

Consider `Cc1cccc(C)c1-n1nc2c(c1-c1cc(F)c(NC(N)=O)cc1F)CN(c1ncc(C(C)C)cc1F)CC2` [Example 1.165], for which the IC50 is no more than 5 nM.

Regarding `Cc1cccc(OCC(C)C)c1-n1nc2c(c1-c1ccc(NC(N)=O)cc1)CN(C(=O)C1CCC1)CC2` [Example 1.426], the IC50 is 50 to 500 nM.

As for `Cc1cccc(OCC(C)C)c1-n1nc2c(c1-c1ccc(NC(N)=O)c(F)c1)CN(C(C)C1CCCCC1)CC2` (centres unmarked) [Example 1.232], the IC50 was no more than 5 nM.

As to `Cc1cccc(OCC(C)C)c1-n1nc2c(c1-c1ccc(NC(N)=O)cc1)CN(C(=O)CC(C)(C)C)CC2` [Example 1.435], the IC50 lay in the range of 50 to 500 nM.

With `Cc1cccc(OCC(C)C)c1-n1nc2c(c1-c1ccc(NC(N)=O)cc1)CN(c1nc(C(F)(F)F)ccc1C(F)(F)F)CC2` [Example 1.339], the IC50 is no more than 5 nM.

With `CCc1cccc(CC)c1-n1nc2c(c1-c1ccc(NC(N)=O)c(F)c1)CN(C(C)CC)CC2` (centres unmarked) [Example 1.235], the concentration for half-maximal inhibition (IC50) fell in the range of 5 to 50 nM.

In the case of `CC[C@H](c1ccccc1)N1CCc2nn(-c3c(C)cccc3C)c(-c3cc(F)c(NC(N)=O)cc3F)c2C1` [Example 1.100], the concentration for half-maximal inhibition (IC50) was no more than 5 nM.

In the case of `CCc1cccc(CC)c1-n1nc2c(c1-c1cc(F)c(NC(N)=O)cc1OC)CN(Cc1ccc(C(F)(F)F)cc1C(F)(F)F)CC2` [Example 1.042], the IC50 is no more than 5 nM.

`Cc1cccc(OCC(C)C)c1-n1nc2c(c1-c1ccc(NC(N)=O)cc1)CN(c1ncc(Cl)cc1Cl)CC2` [Example 1.258]: the IC50 lay within 5 to 50 nM.

Regarding `CCNc1ccc(-c2c3c(nn2-c2c(C)cccc2OC)CCN(c2ccccc2C(C)C)C3)cc1` [Example 1.476], the IC50 is 5 to 50 nM.

As to `Cc1cccc(C)c1-n1nc2c(c1-c1cc(F)c(NC(N)=O)cc1F)CN(c1ncc(C(F)(F)F)cn1)CC2` [Example 1.154], the IC50 is no more than 5 nM.

`Cc1ccc(C(C)(C)C)cc1N1CCc2nn(-c3c(C)cccc3CC(C)C)c(-c3ccc(N(C)C(N)=O)cc3)c2C1` [Example 1.400]: the IC50 was greater than 500 nM.

Turning to `CCc1cccc(CC)c1-n1nc2c(c1-c1cc(F)c(NC(N)=O)cc1F)CN(Cc1cc(Cl)ccc1C(F)(F)F)CC2` [Example 1.069], the IC50 is no more than 5 nM.
